This is an account of results in patent publication US8785429B2, “Dihydropyrrolonaphthyridinone compounds as inhibitors of JAK” (Takeda Pharmaceutical Company Limited, priority 2009, dated 2014).

The structures appear in SMILES notation.

The target of one experiment is T1, JAK2 (Homo sapiens, UniProt O60674).
T1 construct: purchased Invitrogen
The experiment is described as follows: Assay for JAK2 Inhibition (phosphorylation of FAM-labeled substrate, Caliper LC-3000). It is filed as biochemical. The settings on record: −log10(IC50), IC50 is the molar concentration at 50% inhibition; read-out: JAK2 pIC50 (converted). The protocol: (§1) A compound's ability to inhibit JAK activity may be assessed using a variety of methods, including in vitro and in vivo assays. The following in vitro assays measure a test compound's ability to inhibit JAK2- and JAK3-mediated phosphorylation of FAM-labeled JAK-specific substrates.
(§2) Purified JAK2 and JAK3 proteins were purchased from Invitrogen. JAK2 and JAK3 inhibition is determined using a black 384-well-plate format in buffer containing 50 mM HEPES, 10 mM NaCl, 10 mM MgCl2, 0.2 mM EDTA, 0.01% EDA (Brij® 35), 1 mM DTT, 0.1 mg/mL BSA at pH 7.3. Each test compound is prepared in DMSO using 2-fold serial dilutions for 11 data points and is added to the buffer so that each dilution contains 3% DMSO.
To each well is added 2 μL of 3 μM 5FAM-KKKKEEIYFFFG-NH2 and 45 μM ATP (in buffer), 2 μL of diluted test compound (3% DMSO in medium), and 2 μL of 0.6 nM JAK2 in buffer. The reaction mixture is incubated at room temperature for 60 min and is quenched by adding 50 mM HEPeX, 30 mM EDTA, and 0.1% Tx-100 (pH 7.3). To quantify the fluorescent-labeled substrate and product following reaction, the test plate is loaded on a Caliper LC-3000, which measures percent of conversion by microfluidic-based separation.
(§3) Corresponding IC50 values are calculated by non-linear curve fitting of the compound concentrations and percent of inhibition to the standard IC50 equation.

The target of the next experiment is T2, JAK3 (Homo sapiens, UniProt P52333).
T2 construct: purchased Invitrogen
T2 sequence (P52333 1-1124): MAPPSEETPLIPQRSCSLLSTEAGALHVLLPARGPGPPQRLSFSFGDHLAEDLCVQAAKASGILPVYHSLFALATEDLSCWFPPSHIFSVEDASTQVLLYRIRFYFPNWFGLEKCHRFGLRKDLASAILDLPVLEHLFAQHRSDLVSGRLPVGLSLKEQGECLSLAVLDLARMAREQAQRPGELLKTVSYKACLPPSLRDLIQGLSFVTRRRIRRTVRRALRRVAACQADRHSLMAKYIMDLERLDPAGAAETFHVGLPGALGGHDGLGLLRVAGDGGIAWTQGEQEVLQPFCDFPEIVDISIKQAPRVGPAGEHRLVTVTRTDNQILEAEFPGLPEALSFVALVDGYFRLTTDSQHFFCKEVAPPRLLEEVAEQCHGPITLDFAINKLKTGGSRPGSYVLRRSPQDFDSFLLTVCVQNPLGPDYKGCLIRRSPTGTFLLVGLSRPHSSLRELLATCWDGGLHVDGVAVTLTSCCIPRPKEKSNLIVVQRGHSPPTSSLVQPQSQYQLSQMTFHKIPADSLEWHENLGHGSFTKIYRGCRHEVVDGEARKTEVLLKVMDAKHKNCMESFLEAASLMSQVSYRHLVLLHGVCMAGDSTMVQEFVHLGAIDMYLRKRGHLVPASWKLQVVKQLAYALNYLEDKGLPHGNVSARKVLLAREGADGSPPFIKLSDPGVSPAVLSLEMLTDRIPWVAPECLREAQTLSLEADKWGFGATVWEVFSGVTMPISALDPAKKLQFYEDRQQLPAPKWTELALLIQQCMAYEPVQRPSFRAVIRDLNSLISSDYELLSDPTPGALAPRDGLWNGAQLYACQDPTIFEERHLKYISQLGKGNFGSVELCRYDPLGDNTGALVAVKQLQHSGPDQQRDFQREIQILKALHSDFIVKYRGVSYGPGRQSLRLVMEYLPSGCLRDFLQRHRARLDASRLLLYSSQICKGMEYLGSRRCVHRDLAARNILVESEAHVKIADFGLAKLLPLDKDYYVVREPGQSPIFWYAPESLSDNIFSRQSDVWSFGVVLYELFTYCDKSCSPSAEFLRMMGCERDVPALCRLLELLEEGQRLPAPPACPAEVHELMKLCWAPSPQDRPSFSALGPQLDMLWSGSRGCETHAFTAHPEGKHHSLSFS
In words: Assay for JAK3 Inhibition (phosphorylation of FAM-labeled substrate, Caliper LC-3000). The experiment is classed as biochemical. The conditions noted are these: −log10(IC50), IC50 is the molar concentration at 50% inhibition; read-out: JAK3 pIC50 (converted). The protocol:
as §1, §2
To each well is added 2 μL of 3 μM 5FAM-KKKKEEIYFFFG-NH2 and 15 μM ATP (in buffer), 2 μL of diluted test compound (3% DMSO in medium), and 2 μL of 1.2 nM JAK3 in buffer. The reaction mixture is incubated at room temperature for 60 min and is quenched by adding 50 mM HEPES, 30 mM EDTA, and 0.1% Tx-100 (pH 7.3). To quantify the fluorescent-labeled substrate and product following reaction, the test plate is loaded on a Caliper LC-3000, which measures percent of conversion by microfluidic-based separation.
as §3

T1 sequence (O60674 whole entry): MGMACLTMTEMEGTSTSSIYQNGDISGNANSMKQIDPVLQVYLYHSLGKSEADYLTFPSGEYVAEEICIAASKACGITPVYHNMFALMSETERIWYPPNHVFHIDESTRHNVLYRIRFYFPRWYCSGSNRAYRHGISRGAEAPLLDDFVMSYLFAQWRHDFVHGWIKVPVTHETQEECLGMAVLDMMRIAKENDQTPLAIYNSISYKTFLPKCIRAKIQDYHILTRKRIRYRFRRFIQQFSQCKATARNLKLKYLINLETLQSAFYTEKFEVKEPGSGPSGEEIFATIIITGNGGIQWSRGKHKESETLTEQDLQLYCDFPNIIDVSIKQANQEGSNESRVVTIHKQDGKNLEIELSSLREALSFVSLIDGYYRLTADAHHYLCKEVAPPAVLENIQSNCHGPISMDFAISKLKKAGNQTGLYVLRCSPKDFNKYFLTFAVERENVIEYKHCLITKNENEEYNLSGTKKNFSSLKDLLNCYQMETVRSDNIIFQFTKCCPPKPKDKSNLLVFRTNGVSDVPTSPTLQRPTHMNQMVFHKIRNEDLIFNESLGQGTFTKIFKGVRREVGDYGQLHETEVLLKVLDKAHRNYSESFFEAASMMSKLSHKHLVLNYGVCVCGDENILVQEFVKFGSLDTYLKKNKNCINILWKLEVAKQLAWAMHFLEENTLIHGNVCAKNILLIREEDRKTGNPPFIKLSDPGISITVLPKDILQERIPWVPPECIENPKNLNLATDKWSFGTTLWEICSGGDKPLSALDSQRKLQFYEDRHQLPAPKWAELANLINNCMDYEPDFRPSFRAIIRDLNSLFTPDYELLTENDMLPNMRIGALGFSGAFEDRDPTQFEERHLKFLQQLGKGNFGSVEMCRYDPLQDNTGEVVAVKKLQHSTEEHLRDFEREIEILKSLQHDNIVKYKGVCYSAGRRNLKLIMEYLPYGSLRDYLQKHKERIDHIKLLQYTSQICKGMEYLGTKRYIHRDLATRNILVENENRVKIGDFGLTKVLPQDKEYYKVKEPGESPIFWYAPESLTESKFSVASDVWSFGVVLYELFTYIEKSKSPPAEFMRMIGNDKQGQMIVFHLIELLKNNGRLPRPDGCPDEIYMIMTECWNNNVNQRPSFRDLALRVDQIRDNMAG

In the case of `CC(C)[C@H](C(=O)Nc1cccc(C#N)c1)N1Cc2c(Cl)cnc3[nH]cc(c23)C1=O` [Example 36, (R)-2-(6-chloro-3-oxopyrrolo[4,3,2-de][2,6]naphthyridin-4(1H,3H,5H)-yl)-N-(3-cyanophenyl)-3-methylbutanamide], the IC50 on JAK2 is 1000 nM; at JAK3, 126 nM.
Consider `CCC1(N2Cc3c[nH]c4nccc(c34)C2=O)CCN(C(=O)CC#N)CC1` [Example 9, 3-(4-ethyl-4-(5-oxopyrrolo[4,3,2-de][2,6]naphthyridin-4(1H,3H,5H)-yl)piperidin-1-yl)-3-oxopropanenitrile], for which the figures for the IC50 on JAK2 and at JAK3 were 20 nM and 10 nM, respectively.
Take `CC(C)[C@H](C(=O)N1CCS(=O)(=O)C1)N1Cc2c(F)cnc3[nH]cc(c23)C1=O` [Example 77, (R)-4-(1-(1,1-dioxidothiazolidin-3-yl)-3-methyl-1-oxobutan-2-yl)-6-fluoro-4,5-dihydropyrrolo[4,3,2-de][2,6]naphthyridin-3(1H)-one]: the IC50 at JAK2 was 1580 nM; at JAK3 it was 63.1 nM.
Turning to `CC(C)[C@H](C(=O)N(C)CCC#N)N1Cc2c(F)cnc3[nH]cc(c23)C1=O` [Example 43], the IC50 on JAK2 is 12600 nM; at JAK3 it was 794 nM.
`CC(C)[C@H](C(=O)N1CCC(C#N)C1)N1Cc2c(Cl)cnc3[nH]cc(c23)C1=O` (stereo partly drawn) [Example 33, 1-((R)-2-(6-chloro-3-oxopyrrolo[4,3,2-de][2,6]naphthyridin-4(1H,3H,5H)-yl)-3-methylbutanoyl)pyrrolidine-3-carbonitrile]: the figures for the IC50 at JAK2 and at JAK3 were 794 nM and 39.8 nM, respectively.
With `CC(C)(O)[C@H](C(=O)NC1CCCC1)N1Cc2ccnc3[nH]cc(c23)C1=O` [Example 29, (R)—N-cyclopentyl-3-hydroxy-3-methyl-2-(3-oxopyrrolo[4,3,2-de][2,6]naphthyridin-4(1H,3H,5H)-yl)butanamide], the IC50 on JAK2 is 3160 nM; on JAK3, 158 nM.
In the case of `CC(C)[C@H](C(=O)NCCS(C)(=O)=O)N1Cc2c(F)cnc3[nH]cc(c23)C1=O` [Example 46, (R)-2-(6-fluoro-3-oxopyrrolo[4,3,2-de][2,6]naphthyridin-4(1H,3H,5H)-yl)-3-methyl-N-(2-(methylsulfonyl)ethyl)butanamide], the IC50 at JAK2 is 1580 nM; at JAK3 it was 251 nM.
Consider `CC(C)C[C@H](C(=O)N1CCCC1)N1Cc2ccnc3[nH]cc(c23)C1=O` [Example 21, (R)-4-(4-methyl-1-oxo-1-(pyrrolidin-1-yl)pentan-2-yl)-4,5-dihydropyrrolo[4,3,2-de][2,6]naphthyridin-3(1H)-one], for which the IC50 at JAK2 was 794 nM; on JAK3, 126 nM.
In the case of `CC[C@@H](C)[C@H](C(=O)NC1CCCC1)N1Cc2ccnc3[nH]cc(c23)C1=O` [Example 23, (2R,3R)—N-cyclopentyl-3-methyl-2-(3-oxopyrrolo[4,3,2-de][2,6]naphthyridin-4(1H,3H,5H)-yl)pentanamide], the figures for the IC50 at JAK2 and at JAK3 were 3980 nM and 398 nM, respectively.
The like results for `CC[C@H](C(=O)NCC(C)(C)O)N1Cc2ccnc3[nH]cc(c23)C1=O` [Example 70, (R)—N-(2-hydroxy-2-methylpropyl)-2-(3-oxopyrrolo[4,3,2-de][2,6]naphthyridin-4(1H,3H,5H)-yl)butanamide] were, in that order, 10000 nM and 501 nM.
Regarding `CC(C)[C@H](C(=O)NC1CCC(F)(F)C1)N1Cc2c(F)cnc3[nH]cc(c23)C1=O` (stereo partly drawn) [Example 50, (2R)—N-(3,3-difluorocyclopentyl)-2-(6-fluoro-3-oxopyrrolo[4,3,2-de][2,6]naphthyridin-4(1H,3H,5H)-yl)-3-methylbutanamide], the IC50 was 1580 nM at JAK2 and 79.4 nM at JAK3.
In the case of `CC(C)[C@H](C(=O)N1CC(C(F)F)C1)N1Cc2c(F)cnc3[nH]cc(c23)C1=O` [Example 80, (R)-4-(1-(3-(difluoromethyl)azetidin-1-yl)-3-methyl-1-oxobutan-2-yl)-6-fluoro-4,5-dihydropyrrolo[4,3,2-de][2,6]naphthyridin-3(1H)-one], the figures for the IC50 on JAK2 and on JAK3 were 398 nM and 15.8 nM, respectively.
With `CC[C@H](CC#N)NC(=O)[C@@H](C(C)C)N1Cc2c(Cl)cnc3[nH]cc(c23)C1=O` [Example 38, (R)-2-(6-chloro-3-oxopyrrolo[4,3,2-de][2,6]naphthyridin-4(1H,3H,5H)-yl)-N—((R)-1-cyanobutan-2-yl)-3-methylbutanamide], the IC50 is 1000 nM at JAK2 and 31.6 nM on JAK3.
As to `CC(C)[C@H](C(=O)N(C)CC#N)N1Cc2c(F)cnc3[nH]cc(c23)C1=O` [Example 79, (R)—N-(cyanomethyl)-2-(6-fluoro-3-oxopyrrolo[4,3,2-de][2,6]naphthyridin-4(1H,3H,5H)-yl)-N,3-dimethylbutanamide], the IC50 on JAK2 is 2510 nM; on JAK3, 126 nM.
Consider `Cc1cnc2[nH]cc3c2c1CN([C@@H](C(=O)N1CC(C#N)C1)C(C)C)C3=O` [Example 88, (R)-1-(3-methyl-2-(6-methyl-3-oxopyrrolo[4,3,2-de][2,6]naphthyridin-4(1H,3H,5H)-yl)butanoyl)azetidine-3-carbonitrile], for which the IC50 is 25.1 nM on JAK2 and 1.58 nM at JAK3.
Regarding `CC[C@H](C(=O)N1CCC(N(C)C)C1)N1Cc2ccnc3[nH]cc(c23)C1=O` (stereo partly drawn) [Example 59, 4-((2R)-1-(3-(dimethylamino)pyrrolidin-1-yl)-1-oxobutan-2-yl)-4,5-dihydropyrrolo[4,3,2-de][2,6]naphthyridin-3(1 H)-one], the values for the IC50 on JAK2 and at JAK3 were 20000 nM and 6310 nM, respectively.
For `CC(C)[C@H](C(=O)NCC#N)N1Cc2c(Cl)cnc3[nH]cc(c23)C1=O` [Example 32, (R)-2-(6-chloro-3-oxopyrrolo[4,3,2-de][2,6]naphthyridin-4(1H,3H,5H)-yl)-N-(cyanomethyl)-3-methylbutanamide], the IC50 on JAK2 was 200 nM; at JAK3, 10 nM.
`CC[C@H](C(=O)N1CCCC(C)C1)N1Cc2ccnc3[nH]cc(c23)C1=O` (stereo partly drawn) [Example 61, 4-((2R)-1-(3-methylpiperidin-1-yl)-1-oxobutan-2-yl)-4,5-dihydropyrrolo[4,3,2-de][2,6]naphthyridin-3(1 H)-one]: the IC50 on JAK2 is 20000 nM; on JAK3, 6310 nM.
Take `CC[C@H](C(=O)NC[C@H](O)CO)N1Cc2ccnc3[nH]cc(c23)C1=O` [Example 71, (R)—N—((S)-2,3-dihydroxypropyl)-2-(3-oxopyrrolo[4,3,2-de][2,6]naphthyridin-4(1H,3H,5H)-yl)butanamide]: the IC50 at JAK2 is 5010 nM; at JAK3, 794 nM.
Take `CC[C@H](C(=O)N1CCN(C)CC1)N1Cc2ccnc3[nH]cc(c23)C1=O` [Example 55, (R)-4-(1-(4-methylpiperazin-1-yl)-1-oxobutan-2-yl)-4,5-dihydropyrrolo[4,3,2-de][2,6]naphthyridin-3(1 H)-one]: the IC50 was 12600 nM at JAK2 and 1000 nM on JAK3.
